Measured values published in patent publication EP0025842B1, “Peptides, process for their preparation, their pharmaceutical compositions and their intermediates” (FUJISAWA PHARMACEUTICAL CO., LTD., priority 1979, dated 1987).

Tests used:
mice = test: Acute toxicity in mice; format: in vivo; details: 1 g/kg (i.v.)
Description: 7. Acute toxicity in mice of FR-900156 1 g/kg (i.v.): no toxicity

mouse L cell = test: Cell toxicity (mouse L cell); format: cell-based; details: 500 µg/ml

## C[C@H](NC(=O)[C@@H](C)O)C(=O)N[C@H](CCC(=O)N[C@@H](CCC[C@@H](N)C(=O)O)C(=O)NCC(=O)O)C(=O)O [FR-900156, D-Lactyl-L-alanyl-γ-D-glutamyl-(L)-mesodiaminopimelyl(L)-glycine]
mice
  Acute toxicity in mice: no toxicity
Mouse L cell
  Cell toxicity (mouse L cell): no toxic effect
